Source: publication PMC9898036, “VIP152 is a selective CDK9 inhibitor with pre-clinical in vitro and in vivo efficacy in chronic lymphocytic leukemia” (Leukemia, 2022)
Where two headings read alike, the source gives them in different places.

Tests used:
Assay in all cases: DiscoverX KINOMEscan kinase profiling (468 assays)
Type in all cases: binding
human kinome [1] = molecular target: human kinome (Homo sapiens, UniProt Q9UQM7); conditions: CAMK2A; 100 nM; read-out: Percent Control
In short: (§1)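 VIP152 was run in DMSO, alongside a DMSO control. Readout was qPCR of DNA-tagged kinase still bound to bead-immobilized biotinylated kinase ligands after compound competition.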

human kinome [2] = molecular target: human kinome (Homo sapiens, UniProt O14920); conditions: IKK-beta (Entrez IKBKB); 100 nM; read-out: Percent Control
In short: as §1

human kinome [3] = molecular target: human kinome (Homo sapiens, UniProt Q86UX6); conditions: kinase YANK3 (Entrez STK32C); compound concentration 1000 nM; read-out: Percent Control
In short: as §1

human kinome [4] = molecular target: human kinome (Homo sapiens, UniProt P51451); conditions: BLK; 100 nM; read-out: Percent Control
In short: as §1

human kinome [5] = molecular target: human kinome (Homo sapiens, UniProt P15735); conditions: read-out: Percent Control
human kinome (Homo sapiens, UniProt P15735), sequence (P15735 whole entry): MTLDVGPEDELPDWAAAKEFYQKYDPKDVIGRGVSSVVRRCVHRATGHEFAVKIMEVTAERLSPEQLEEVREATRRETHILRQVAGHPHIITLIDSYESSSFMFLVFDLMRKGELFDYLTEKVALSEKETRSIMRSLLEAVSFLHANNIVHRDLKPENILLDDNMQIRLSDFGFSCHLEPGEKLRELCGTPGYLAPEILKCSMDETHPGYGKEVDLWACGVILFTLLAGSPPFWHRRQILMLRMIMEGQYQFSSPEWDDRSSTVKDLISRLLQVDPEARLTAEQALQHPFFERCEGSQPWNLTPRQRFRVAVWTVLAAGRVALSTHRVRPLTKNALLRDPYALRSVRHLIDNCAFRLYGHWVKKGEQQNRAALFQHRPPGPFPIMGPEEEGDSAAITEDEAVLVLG
In short: as §1

human kinome [6] = molecular target: human kinome (Homo sapiens, UniProt P36888, R834Q); conditions: FLT3(R834Q); 100 nM; read-out: Percent Control
In short: as §1

human kinome [7] = molecular target: human kinome (Homo sapiens, UniProt P21709); conditions: EPHA1; 100 nM; read-out: Percent Control
In short: as §1

human kinome [8] = molecular target: human kinome (Homo sapiens, UniProt O14733); conditions: MKK7 (Entrez MAP2K7); 100 nM; read-out: Percent Control
In short: as §1

human kinome [9] = molecular target: human kinome (Homo sapiens, UniProt Q9Y2K2); conditions: read-out: Percent Control
human kinome (Homo sapiens, UniProt Q9Y2K2), sequence (Q9Y2K2 whole entry): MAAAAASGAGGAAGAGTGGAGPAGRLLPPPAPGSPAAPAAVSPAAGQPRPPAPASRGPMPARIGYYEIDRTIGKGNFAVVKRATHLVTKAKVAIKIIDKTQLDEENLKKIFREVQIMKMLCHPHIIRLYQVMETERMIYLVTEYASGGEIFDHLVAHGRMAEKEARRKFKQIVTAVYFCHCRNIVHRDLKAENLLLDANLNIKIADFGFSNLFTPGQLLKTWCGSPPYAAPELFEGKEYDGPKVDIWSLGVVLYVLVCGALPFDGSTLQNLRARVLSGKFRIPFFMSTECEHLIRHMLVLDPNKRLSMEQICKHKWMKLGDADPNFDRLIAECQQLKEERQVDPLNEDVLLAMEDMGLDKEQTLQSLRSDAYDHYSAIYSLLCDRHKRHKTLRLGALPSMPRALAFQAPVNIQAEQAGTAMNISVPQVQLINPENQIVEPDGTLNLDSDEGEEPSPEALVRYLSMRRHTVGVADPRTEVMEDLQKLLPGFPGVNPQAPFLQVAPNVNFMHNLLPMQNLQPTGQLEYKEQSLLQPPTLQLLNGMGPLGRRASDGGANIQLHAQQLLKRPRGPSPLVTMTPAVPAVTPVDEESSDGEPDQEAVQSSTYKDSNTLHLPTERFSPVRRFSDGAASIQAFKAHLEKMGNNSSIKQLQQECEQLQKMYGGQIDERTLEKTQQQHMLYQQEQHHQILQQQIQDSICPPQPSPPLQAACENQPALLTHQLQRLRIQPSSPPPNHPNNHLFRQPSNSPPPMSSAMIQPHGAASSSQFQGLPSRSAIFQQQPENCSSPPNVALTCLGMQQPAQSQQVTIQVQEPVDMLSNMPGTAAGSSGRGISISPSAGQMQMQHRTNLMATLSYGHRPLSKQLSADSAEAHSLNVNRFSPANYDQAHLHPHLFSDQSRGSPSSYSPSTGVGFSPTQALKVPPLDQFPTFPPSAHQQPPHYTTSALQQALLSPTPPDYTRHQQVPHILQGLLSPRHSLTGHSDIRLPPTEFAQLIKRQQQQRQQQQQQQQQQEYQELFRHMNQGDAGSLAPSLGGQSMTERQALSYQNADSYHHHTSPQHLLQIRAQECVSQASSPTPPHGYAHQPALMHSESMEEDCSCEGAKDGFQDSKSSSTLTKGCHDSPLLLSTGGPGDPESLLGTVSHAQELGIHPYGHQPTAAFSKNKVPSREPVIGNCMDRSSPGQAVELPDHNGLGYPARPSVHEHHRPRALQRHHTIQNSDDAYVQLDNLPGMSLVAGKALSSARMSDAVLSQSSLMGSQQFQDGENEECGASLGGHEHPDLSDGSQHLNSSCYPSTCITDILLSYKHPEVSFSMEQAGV
In short: as §1

human kinome [10] = molecular target: human kinome (Homo sapiens, UniProt Q16659); conditions: ERK3 (Entrez MAPK6); 100 nM; read-out: Percent Control
In short: as §1

human kinome [11] = molecular target: human kinome (Homo sapiens, UniProt Q13554); conditions: CAMK2B; 100 nM; read-out: Percent Control
In short: as §1

human kinome [12] = molecular target: human kinome (Homo sapiens, UniProt Q15349); conditions: compound concentration 1000 nM, read-out: Percent Control
human kinome (Homo sapiens, UniProt Q15349), sequence (Q15349 whole entry): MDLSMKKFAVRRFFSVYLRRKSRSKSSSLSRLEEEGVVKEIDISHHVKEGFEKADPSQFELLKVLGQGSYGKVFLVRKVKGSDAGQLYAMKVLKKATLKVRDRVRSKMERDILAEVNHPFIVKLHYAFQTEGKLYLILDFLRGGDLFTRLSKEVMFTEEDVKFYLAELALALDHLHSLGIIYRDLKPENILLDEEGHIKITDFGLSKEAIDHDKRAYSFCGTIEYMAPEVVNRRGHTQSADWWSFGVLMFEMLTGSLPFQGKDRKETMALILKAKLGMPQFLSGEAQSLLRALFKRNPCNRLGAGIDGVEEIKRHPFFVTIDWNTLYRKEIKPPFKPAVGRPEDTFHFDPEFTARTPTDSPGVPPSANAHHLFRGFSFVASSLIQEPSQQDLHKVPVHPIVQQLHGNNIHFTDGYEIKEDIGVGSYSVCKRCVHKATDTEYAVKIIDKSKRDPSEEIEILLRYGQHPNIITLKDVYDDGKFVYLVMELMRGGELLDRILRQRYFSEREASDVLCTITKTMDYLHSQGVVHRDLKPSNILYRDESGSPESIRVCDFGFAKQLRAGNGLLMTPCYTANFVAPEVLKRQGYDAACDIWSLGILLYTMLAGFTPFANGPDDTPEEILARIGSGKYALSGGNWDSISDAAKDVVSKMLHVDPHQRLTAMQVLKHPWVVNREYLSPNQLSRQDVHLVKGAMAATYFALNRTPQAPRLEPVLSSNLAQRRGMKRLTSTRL
In short: as §1

human kinome [13] = molecular target: human kinome (Homo sapiens, UniProt P27037); conditions: ACVR2A; 100 nM; read-out: Percent Control
In short: as §1

human kinome [14] = molecular target: human kinome (Homo sapiens, UniProt P00533, T790M); conditions: EGFR(T790M); 100 nM; read-out: Percent Control
In short: as §1

human kinome [15] = molecular target: human kinome (Homo sapiens, UniProt Q12866); conditions: MERTK; 100 nM; read-out: Percent Control
In short: as §1

human kinome [16] = molecular target: human kinome (Homo sapiens, UniProt Q96SB4); conditions: kinase SRPK1 (Entrez SRPK1); compound concentration 1000 nM; read-out: Percent Control
In short: as §1

human kinome [17] = molecular target: human kinome (Homo sapiens, UniProt Q16288); conditions: kinase TRKC (Entrez NTRK3); compound concentration 1000 nM; read-out: Percent Control
In short: as §1

human kinome [18] = molecular target: human kinome (Homo sapiens, UniProt Q9C098); conditions: DCAMKL3 (Entrez DCLK3); 100 nM; read-out: Percent Control
human kinome (Homo sapiens, UniProt Q9C098), sequence (Q9C098 whole entry): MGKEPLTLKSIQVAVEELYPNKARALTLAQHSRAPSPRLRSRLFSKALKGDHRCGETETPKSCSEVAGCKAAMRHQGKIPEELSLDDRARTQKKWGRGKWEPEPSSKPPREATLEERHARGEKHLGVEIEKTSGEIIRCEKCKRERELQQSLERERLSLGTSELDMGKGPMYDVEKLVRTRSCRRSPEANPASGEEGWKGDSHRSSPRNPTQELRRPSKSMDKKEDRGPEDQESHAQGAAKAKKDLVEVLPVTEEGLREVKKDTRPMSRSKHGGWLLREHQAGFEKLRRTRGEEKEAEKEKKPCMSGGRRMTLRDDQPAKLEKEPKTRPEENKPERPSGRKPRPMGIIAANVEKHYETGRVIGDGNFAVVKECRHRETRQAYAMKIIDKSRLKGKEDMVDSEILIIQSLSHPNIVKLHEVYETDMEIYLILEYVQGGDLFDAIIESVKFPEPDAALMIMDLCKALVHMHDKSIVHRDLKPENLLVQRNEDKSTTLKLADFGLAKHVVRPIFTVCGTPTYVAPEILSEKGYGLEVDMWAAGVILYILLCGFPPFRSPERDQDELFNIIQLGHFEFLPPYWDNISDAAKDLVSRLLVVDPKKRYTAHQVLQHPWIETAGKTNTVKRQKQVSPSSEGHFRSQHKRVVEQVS
In short: as §1

human kinome [19] = molecular target: human kinome (Homo sapiens, UniProt Q9BRS2); conditions: kinase RIOK1 (Entrez RIOK1); compound concentration 1000 nM; read-out: Percent Control
In short: as §1

human kinome [20] = molecular target: human kinome (Homo sapiens, UniProt Q9P1W9); conditions: read-out: Percent Control
human kinome (Homo sapiens, UniProt Q9P1W9), sequence (Q9P1W9 whole entry): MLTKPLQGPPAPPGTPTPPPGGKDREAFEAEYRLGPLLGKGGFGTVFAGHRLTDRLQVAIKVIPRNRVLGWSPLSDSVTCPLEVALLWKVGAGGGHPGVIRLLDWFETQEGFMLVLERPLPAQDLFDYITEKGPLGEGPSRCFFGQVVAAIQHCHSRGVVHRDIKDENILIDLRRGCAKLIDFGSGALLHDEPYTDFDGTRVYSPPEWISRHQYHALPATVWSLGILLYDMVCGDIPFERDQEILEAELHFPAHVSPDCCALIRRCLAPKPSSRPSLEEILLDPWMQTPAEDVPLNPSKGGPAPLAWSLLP
In short: as §1

human kinome [21] = molecular target: human kinome (Homo sapiens, UniProt P54762); conditions: EPHB1; 100 nM; read-out: Percent Control
In short: as §1

human kinome [22] = molecular target: human kinome (Homo sapiens, UniProt Q16832); conditions: DDR2; 100 nM; read-out: Percent Control
In short: as §1

human kinome [23] = molecular target: human kinome (Homo sapiens, UniProt O00238); conditions: BMPR1B; 100 nM; read-out: Percent Control
In short: as §1

human kinome [24] = molecular target: human kinome (Homo sapiens, UniProt P20794); conditions: MAK; 100 nM; read-out: Percent Control
In short: as §1

human kinome [25] = molecular target: human kinome (Homo sapiens, UniProt O94806); conditions: read-out: Percent Control
human kinome (Homo sapiens, UniProt O94806), sequence (O94806 whole entry): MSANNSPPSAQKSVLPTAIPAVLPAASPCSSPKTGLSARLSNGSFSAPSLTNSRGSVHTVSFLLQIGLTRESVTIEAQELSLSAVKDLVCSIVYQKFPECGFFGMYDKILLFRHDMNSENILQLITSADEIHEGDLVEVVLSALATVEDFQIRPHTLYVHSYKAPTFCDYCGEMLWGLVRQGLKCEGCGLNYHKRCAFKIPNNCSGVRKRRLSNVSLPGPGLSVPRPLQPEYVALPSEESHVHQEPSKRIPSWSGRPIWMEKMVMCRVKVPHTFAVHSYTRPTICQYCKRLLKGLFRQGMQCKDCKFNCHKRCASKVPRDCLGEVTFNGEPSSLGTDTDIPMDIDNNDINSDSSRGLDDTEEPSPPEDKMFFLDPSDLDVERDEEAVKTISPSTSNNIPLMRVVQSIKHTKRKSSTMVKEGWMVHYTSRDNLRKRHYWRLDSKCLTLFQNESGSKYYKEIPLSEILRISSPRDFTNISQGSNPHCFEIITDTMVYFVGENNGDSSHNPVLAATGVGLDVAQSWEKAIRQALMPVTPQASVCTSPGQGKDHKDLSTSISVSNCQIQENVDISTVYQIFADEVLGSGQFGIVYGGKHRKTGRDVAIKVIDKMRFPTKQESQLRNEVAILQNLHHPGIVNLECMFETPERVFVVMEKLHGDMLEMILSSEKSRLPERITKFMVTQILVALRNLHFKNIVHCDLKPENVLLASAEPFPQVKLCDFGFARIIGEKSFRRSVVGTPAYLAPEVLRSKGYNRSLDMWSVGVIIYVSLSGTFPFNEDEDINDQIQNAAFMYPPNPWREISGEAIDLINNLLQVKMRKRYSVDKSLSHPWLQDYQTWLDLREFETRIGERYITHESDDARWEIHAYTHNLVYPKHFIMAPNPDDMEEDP
In short: as §1

human kinome [26] = molecular target: human kinome (Homo sapiens, UniProt P22607, G697C); conditions: FGFR3(G697C); 100 nM; read-out: Percent Control
In short: as §1

human kinome [27] = molecular target: human kinome (Homo sapiens, UniProt P78356); conditions: read-out: Percent Control
human kinome (Homo sapiens, UniProt P78356), sequence (P78356 whole entry): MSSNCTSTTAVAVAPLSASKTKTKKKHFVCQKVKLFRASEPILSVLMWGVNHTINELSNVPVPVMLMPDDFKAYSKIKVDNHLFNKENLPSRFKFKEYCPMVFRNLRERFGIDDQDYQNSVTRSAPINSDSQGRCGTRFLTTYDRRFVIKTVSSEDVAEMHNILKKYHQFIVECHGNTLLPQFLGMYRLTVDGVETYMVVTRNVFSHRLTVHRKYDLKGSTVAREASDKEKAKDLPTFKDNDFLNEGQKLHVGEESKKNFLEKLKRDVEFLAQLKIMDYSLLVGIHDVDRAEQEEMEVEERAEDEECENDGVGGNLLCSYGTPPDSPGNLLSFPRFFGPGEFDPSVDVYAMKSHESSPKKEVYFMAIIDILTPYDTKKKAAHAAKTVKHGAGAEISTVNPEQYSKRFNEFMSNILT
In short: as §1

human kinome [28] = molecular target: human kinome (Homo sapiens, UniProt P08581, M1250T); conditions: MET(M1250T); 100 nM; read-out: Percent Control
In short: as §1

human kinome [29] = molecular target: human kinome (Homo sapiens, UniProt O00141); conditions: kinase SGK (Entrez SGK1); compound concentration 1000 nM; read-out: Percent Control
In short: as §1

Q: What does the source list for `COc1cc(F)ccc1-c1cc(Nc2cc(CS(C)(=N)=O)ccn2)ncc1F` (centres unmarked) [VIP152]?
A: remaining binding at 0.1 µM (human kinome [1]): 91%; remaining binding at 0.1 µM (human kinome [2]): 100%; remaining binding at 1 µM (human kinome [3]): 95%; remaining binding at 0.1 µM (human kinome [4]): 100%; remaining binding at 0.1 µM (human kinome [5]; PHKG2, 100 nM): 100%; remaining binding at 1 µM (human kinome [5]; kinase PHKG2 (Entrez PHKG2), compound concentration 1000 nM): 88%; remaining binding at 0.1 µM (human kinome [6]): 100%; remaining binding at 0.1 µM (human kinome [7]): 100%; remaining binding at 0.1 µM (human kinome [8]): 86%; remaining binding at 0.1 µM (human kinome [9]; QSK (Entrez KIAA0999), 100 nM): 100%; remaining binding at 1 µM (human kinome [9]; kinase QSK (Entrez KIAA0999), compound concentration 1000 nM): 98%; remaining binding at 0.1 µM (human kinome [10]): 100%; remaining binding at 0.1 µM (human kinome [11]): 100%; remaining binding at 1 µM (human kinome [12]; kinase RSK3(Kin.Dom.1-N-terminal) (Entrez RPS6KA2)): 98%; remaining binding at 1 µM (human kinome [12]; kinase RSK3(Kin.Dom.2-C-terminal) (Entrez RPS6KA2)): 92%; remaining binding at 0.1 µM (human kinome [13]): 91%; remaining binding at 0.1 µM (human kinome [14]): 100%; remaining binding at 0.1 µM (human kinome [15]): 100%; remaining binding at 1 µM (human kinome [16]): 91%; remaining binding at 1 µM (human kinome [17]): 26%; remaining binding at 0.1 µM (human kinome [18]): 100%; remaining binding at 1 µM (human kinome [19]): 79%; remaining binding at 0.1 µM (human kinome [20]; PIM2, 100 nM): 100%; remaining binding at 1 µM (human kinome [20]; kinase PIM2 (Entrez PIM2), compound concentration 1000 nM): 100%; remaining binding at 0.1 µM (human kinome [21]): 100%; remaining binding at 0.1 µM (human kinome [22]): 79%; remaining binding at 0.1 µM (human kinome [23]): 95%; remaining binding at 0.1 µM (human kinome [24]): 100%; remaining binding at 0.1 µM (human kinome [25]; PRKD3, 100 nM): 91%; remaining binding at 1 µM (human kinome [25]; kinase PRKD3 (Entrez PRKD3), compound concentration 1000 nM): 100%; remaining binding at 0.1 µM (human kinome [26]): 100%; remaining binding at 0.1 µM (human kinome [27]; PIP5K2B (Entrez PIP4K2B), 100 nM): 100%; remaining binding at 1 µM (human kinome [27]; kinase PIP5K2B (Entrez PIP4K2B), compound concentration 1000 nM): 100%; remaining binding at 0.1 µM (human kinome [28]): 92%; remaining binding at 1 µM (human kinome [29]): 83%
